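Five compound concentrations were applied to cells in 96-well plates for 48 hours; endpoints were derived by simple linear interpolation of the resulting dose-response curve. Abbreviation: GI50, concentration required for 50% inhibition of growth. TGI is the concentration that stops growth completely.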
Key:
Experiment in all cases: inhibition of tumour cell growth, NCI panel, 48 h
NCI-H460 lung = system: NCI-H460 lung
NCI-H522 lung = system: NCI-H522 lung
NCI/ADR-RES ovarian = system: NCI/ADR-RES ovarian
OVCAR-3 ovarian = system: OVCAR-3 ovarian
OVCAR-4 ovarian = system: OVCAR-4 ovarian
OVCAR-5 ovarian = system: OVCAR-5 ovarian
OVCAR-8 ovarian = system: OVCAR-8 ovarian
PC-3 prostate = system: PC-3 prostate
RPMI-8226 leukemia = system: RPMI-8226 leukemia
RXF 393 renal = system: RXF 393 renal
SF-268 CNS = system: SF-268 CNS
SF-295 CNS = system: SF-295 CNS
SF-539 CNS = system: SF-539 CNS
SK-MEL-2 melanoma = system: SK-MEL-2 melanoma
SK-MEL-28 melanoma = system: SK-MEL-28 melanoma
SK-MEL-5 melanoma = system: SK-MEL-5 melanoma
SK-OV-3 ovarian = system: SK-OV-3 ovarian
SN12C renal = system: SN12C renal
SNB-19 CNS = system: SNB-19 CNS
SNB-75 CNS = system: SNB-75 CNS
SR leukemia = system: SR leukemia
SW-620 colon = system: SW-620 colon
U251 CNS = system: U251 CNS
UACC-257 melanoma = system: UACC-257 melanoma
UACC-62 melanoma = system: UACC-62 melanoma
UO-31 renal = system: UO-31 renal

Q: How did the GI50 (NCI-H460 lung) turn out when `Brc1ccc(SCN(CSc2ccc(Br)cc2)Cc2ccccc2)cc1` was run?
A: The GI50 was 2.78 µM.

Q: What about the TGI (NCI-H460 lung) of the same compound?
A: Its TGI is 12 µM.

Q: And the GI50 (NCI-H522 lung)?
A: Its GI50 is 2.43 µM.

Q: What about the TGI (NCI-H522 lung) of the same compound?
A: The TGI was 5.62 µM.

Q: And the GI50 (NCI/ADR-RES ovarian)?
A: Its GI50 is 4 µM.

Q: What about the TGI (NCI/ADR-RES ovarian) of the same compound?
A: The TGI was 95.8 µM.

Q: And the GI50 (OVCAR-3 ovarian)?
A: The GI50 was 3.54 µM.

Q: What about the TGI (OVCAR-3 ovarian) of the same compound?
A: The TGI was 11.4 µM.

Q: What about the GI50 (OVCAR-4 ovarian) of the same compound?
A: The GI50 was 10.4 µM.

Q: What about the TGI (OVCAR-4 ovarian) of the same compound?
A: The TGI was 87.8 µM.

Q: What about the GI50 (OVCAR-5 ovarian) of the same compound?
A: Its GI50 is 2.89 µM.

Q: And the TGI (OVCAR-5 ovarian)?
A: Its TGI is 11.4 µM.

Q: What about the GI50 (OVCAR-8 ovarian) of the same compound?
A: Its GI50 is 3.71 µM.

Q: What about the TGI (OVCAR-8 ovarian) of the same compound?
A: The TGI was 17.9 µM.

Q: What about the GI50 (PC-3 prostate) of the same compound?
A: Its GI50 is 2.34 µM.

Q: What about the TGI (PC-3 prostate) of the same compound?
A: Its TGI is 10.3 µM.

Q: What about the GI50 (RPMI-8226 leukemia) of the same compound?
A: Its GI50 is 3.31 µM.

Q: And the TGI (RPMI-8226 leukemia)?
A: The TGI was 10.5 µM.

Q: And the GI50 (RXF 393 renal)?
A: Its GI50 is 5.54 µM.

Q: What about the TGI (RXF 393 renal) of the same compound?
A: The TGI was 20.4 µM.

Q: What about the GI50 (SF-268 CNS) of the same compound?
A: Its GI50 is 2.31 µM.

Q: And the TGI (SF-268 CNS)?
A: Its TGI is 12.6 µM.

Q: What about the GI50 (SF-295 CNS) of the same compound?
A: The GI50 was 1.28 µM.

Q: And the TGI (SF-295 CNS)?
A: The TGI was 3.49 µM.

Q: What about the GI50 (SF-539 CNS) of the same compound?
A: Its GI50 is 1.92 µM.

Q: And the TGI (SF-539 CNS)?
A: The TGI was 3.88 µM.

Q: And the GI50 (SK-MEL-2 melanoma)?
A: Its GI50 is 6.06 µM.

Q: What about the TGI (SK-MEL-2 melanoma) of the same compound?
A: Its TGI is 19.9 µM.

Q: What about the GI50 (SK-MEL-28 melanoma) of the same compound?
A: The GI50 was 5.12 µM.

Q: What about the TGI (SK-MEL-28 melanoma) of the same compound?
A: Its TGI is 23.4 µM.

Q: What about the GI50 (SK-MEL-5 melanoma) of the same compound?
A: The GI50 was 1.77 µM.

Q: And the TGI (SK-MEL-5 melanoma)?
A: The TGI was 3.46 µM.

Q: What about the GI50 (SK-OV-3 ovarian) of the same compound?
A: The GI50 was 7.12 µM.

Q: What about the TGI (SK-OV-3 ovarian) of the same compound?
A: Its TGI is 51 µM.

Q: What about the GI50 (SN12C renal) of the same compound?
A: Its GI50 is 1.38 µM.

Q: What about the TGI (SN12C renal) of the same compound?
A: The TGI was 14.2 µM.

Q: And the GI50 (SNB-19 CNS)?
A: The GI50 was 2.69 µM.

Q: What about the TGI (SNB-19 CNS) of the same compound?
A: Its TGI is 23.5 µM.

Q: And the GI50 (SNB-75 CNS)?
A: The GI50 was 2.28 µM.

Q: What about the TGI (SNB-75 CNS) of the same compound?
A: The TGI was 10.9 µM.

Q: And the GI50 (SR leukemia)?
A: The GI50 was 2.77 µM.

Q: What about the TGI (SR leukemia) of the same compound?
A: Its TGI is 7.77 µM.

Q: What about the GI50 (SW-620 colon) of the same compound?
A: Its GI50 is 3.58 µM.

Q: What about the TGI (SW-620 colon) of the same compound?
A: Its TGI is 15.1 µM.

Q: What about the GI50 (U251 CNS) of the same compound?
A: Its GI50 is 2.02 µM.

Q: And the TGI (U251 CNS)?
A: The TGI was 6.82 µM.

Q: What about the GI50 (UACC-257 melanoma) of the same compound?
A: Its GI50 is 4.05 µM.

Q: What about the TGI (UACC-257 melanoma) of the same compound?
A: The TGI was 17.5 µM.

Q: What about the GI50 (UACC-62 melanoma) of the same compound?
A: Its GI50 is 3.01 µM.

Q: What about the TGI (UACC-62 melanoma) of the same compound?
A: The TGI was 9.34 µM.

Q: What about the GI50 (UO-31 renal) of the same compound?
A: Its GI50 is 1.93 µM.

Q: And the TGI (UO-31 renal)?
A: The TGI was 8.64 µM.

From PubChem BioAssay (NCI)
